# Measured values published in patent US12655174B2, “Adenosine A3 receptor agonists, preparation methods and uses thereof” (ZHEJIANG VIMGREEN PHARMACEUTICALS, LTD., priority 2020, dated 2026).
# What was measured:
# [1] = Pharmacokinetic test of compound in SD rat; format: in vivo; settings: SD rats, intragastric administration (IG), cassette dosing
# Method: Example 28: Pharmacokinetic Test of Compound in SD Rat
# The animal species used in this experiment were SD rats. There were 3 animals per group. The rats were dosed in cassette format, i.e., multiple (1-6) different compounds were dosed simultaneously to the same group of the SD rats. The vehicle used for the drug was 5% DMSO+5% Solutl+90% ([…] methylcellulose M450), and the administration route was intragastric administration (IG).
# ADORA3 receptor = biological target: T1, ADORA3 receptor (Homo sapiens, UniProt P0DMS8); assay: Agonistic effect on adenosine A3 receptor by FLIPR assay (calcium flux assay); format: cell-based; settings: agonist mode
# T1 sequence (P0DMS8 1-318): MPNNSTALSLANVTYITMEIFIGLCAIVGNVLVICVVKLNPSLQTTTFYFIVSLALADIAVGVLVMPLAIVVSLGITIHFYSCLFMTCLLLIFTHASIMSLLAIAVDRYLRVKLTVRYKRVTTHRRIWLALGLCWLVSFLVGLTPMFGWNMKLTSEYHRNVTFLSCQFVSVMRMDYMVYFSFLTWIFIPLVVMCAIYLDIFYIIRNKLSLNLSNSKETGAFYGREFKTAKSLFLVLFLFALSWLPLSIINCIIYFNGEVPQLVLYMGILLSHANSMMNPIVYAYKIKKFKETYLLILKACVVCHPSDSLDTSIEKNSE
# Method: Example 27: Agonistic Effect of Compound on Adenosine A3 Receptor by FLIPR Assay (Calcium Flux Assay)
# First Day: Cell Inoculation
# • 1) With regard to ADORA3 receptor, cultured cells were used for inoculation: the culture medium was aspirated and the cells were washed twice with 10 mL of DPBS. 2 mL of 0.05% EDTA-trypsin was added and the cells were incubated at 37° C. for 1 minute. Then 10 mL of the culture medium was added to stop the digestion and the cell suspension was transferred to a 50-mL tapered tube. • 2) The 50-mL tapered tube containing the various cells was centrifuged at 300 g for 5 minutes. • 3) A supernatant was aspirated and no cells should be aspirated. • 4) The cell precipitate was resuspended in 6-8 mL of the culture medium, and then 0.5 mL of the cells were taken out for cell counting by using a Vi-cell XR cell viability analyzer. • 5) The cell suspension was diluted to 1×10^6 cells/mL (20 μL of 20,000 cells per well) in the culture medium and the cells were inoculated into a cell plate (384-well Poly-D-lysine protein-coated plate, Greiner-781946). • 6) The plate was placed in a 37° C./5% CO2 incubator for 16-20 hours. Second Day: • 1) Preparation of 2×Fluo-4 Direct™ uptaking dye • a. Preparation of probenecid solution • 1 mL of FLIPR assay buffer was added to 77 mg of probenecid (provided by Fluo-4 Direct™ calcium assay kit) to be prepared into 250 mM of a probenecid solution. The fresh probenecid solution was used daily. • b. 2×(8 μM) Fluo-4 Direct™ loading dye (per 10 mL)
# A vial of the Fluo-4 Direct™ crystal was thawed and then 10 mL of the FLTPR analytical buffer was added to the vial. Then 0.2 mL of 250 mM of a probe solution was added to every 10 mL Fluo-4 Direct™ crystal to a final assay concentration of 2.5 mM. The solution was vortexed and stood for >5 min at a dark place. 2×Fluo-4 Direct™ uptaking dye was freshly prepared daily. • 2) Compound preparation • a. Preparation of compound plate: all reference and test compounds were serially diluted 4-fold in 10 points by using an Echo liquid processor and then 900 nL of the diluted compounds were transferred to a compound plate. • b. 30 μL FLIPR analytical buffer was added to the compound plate and the plate was centrifuged at 300 g for 1 minute. • 3) FLIPR analysis • a. With regard to ADORA3 receptor: firstly, the cell plate was taken out from a culture box. The culture medium was then aspirated and 20 μL of the FLIPR analytical buffer was added. The cell plate was placed in an incubator for 45 minutes and at a room temperature for 15 minutes. • b. To run an experimental solution on […], 10 μL of the FLIPR analytical buffer was transferred from the compound plate to a cell plate, and then the fluorescent signal was read. Then 10 μL of a compound solution was transferred from the compound plate to the cell plate and the fluorescence signal was read. “Max−min” was calculated from Reader 91 to an allowed maximum value. • c. With regard to agonist: activation %=(RLU−LC)/(HC−LC)*100, • wherein RLU=relative light unit, allowed maximum signal was 91; HC=average signal of high concentration agonist; and LC=mean signal of DMSO well. • d. Data were fitted to a model “log (agonist) versus response-variable slope” by using GraphPad Prism 5 to determine an EC50 value. • e. […] 2. Test Result
# [2] = biological target: T2, ADORA3 receptor (CHO cells stably expressing ADORA3 receptor) (Homo sapiens, UniProt P0DMS8); assay: Effect of compound on intracellular cAMP level by adenosine A3 receptor agonism; format: cell-based; settings: forskolin-stimulated
# T2 construct: expressed in transfected cells
# T2 sequence (P0DMS8 1-318): T1 sequence (P0DMS8 1-318)
# Method: Example 26: Test the Effect of Compound on Intracellular cAMP Level by Adenosine A3 Receptor Agonism
# • 1) 1×HBSS with Ca2+ and Mg2+ (14 mL), 1 M HEPES (75 μL), a 7.5% (w/v) BSA stabilizer (pH 7.4, 200 μL), and 20 mM rolipram (7.5 μL) were respectively prepared as cAMP assay buffer. • 2) Preparation of compound source plate • a. […] A 10 mM stock solution was subjected to a 3-fold serial dilution by 100% (v/v) DMSO to prepare 10 doses of the test substance. • c. 1 mM of Forskolin was prepared by 100% (v/v) DMSO. • 3) Preparation of test plate • a. Prior to the assay, CHO cells stably expressing ADORA3 receptor were harvested and the cells were counted by using a Countess cell counter. […] The cells were seeded at a density of 2,000 cells/well in a 384-well plate. • 4) 10 nL/well of the serially diluted compound and 10 nL/well of 1 mM of forskolin were transferred to each well with ADORA3 receptor expressing cells by using Echo550. • 5) A cell plate was centrifuged at 1,000 rpm for 1 minute and then stirred at 600 rpm for 2 minutes. The plate was incubated at 37° C. • 6) An Eu-cAMP tracer working solution and an Ulight-anti-cAMP working solution were prepared according to the following table.
# • 7) 5 μl/well of the Eu-cAMP tracer working solution and 5 μl/well of the Ulight-anti-cAMP working solution were added to each well of the plate. […] 2. Data Analysis • 1) An activation percentage was calculated by using the following formula:
# [formula] • % Activation: activation percentage • Ratiocpd: ratio of emissivity of test compound • RatioLow control: ratio of low emissivity • RatioHigh control: ratio of high emissivity • 2) EC50 was calculated by an XLfit using the Hill equation to fit the activity percentage and a log of a compound concentration. 3. Test Result
AUC_D [1] [kg·ng·h/mL/mg],EC50 (ADORA3 receptor) [nM],EC50 [2] [nM],SMILES
2349.41,12.9,,"CNC(=O)[C@H]1OC(n2cnc3c(NCc4cc(C)cc(C)c4)nc(-c4cccnc4)nc32)[C@H](O)[C@@H]1O (stereo in doubt) [compound 297, (2S,3S,4R,5S)-5-(6-((3,5-dimethylbenzyl)amino)-2-(pyridin-3-yl)-9H-purin-9-yl)-3,4-dihydroxyl-N-methyltetrahydrofuran-2-carboxamide]"
4423.94,37,,"CNC(=O)[C@H]1OC(n2cnc3c(NCc4cc(C)cc(C)c4)nc(-c4cncc(OC)c4)nc32)[C@H](O)[C@@H]1O (stereo in doubt) [compound 298, (2S,3S,4R,5S)-5-(6-((3,5-dimethylbenzyl)amino)-2-(5-methoxypyridin-3-yl)-9H-purin-9-yl)-3,4-dihydroxyl-N-methyltetrahydrofuran-2-carboxamide]"
,12.7,,"CCNC(=O)[C@H]1O[C@@H](n2cnc3c(NC)nc(-c4cccnc4)nc32)[C@H](O)[C@@H]1O [compound 42, (2S,3S,4R,5R)-N-ethyl-3,4-dihydroxyl-5-(6-(methylamino)-2-(pyridin-3-yl)-9H-purin-9-yl)-tetrahydrofuran-2-formamide]"
87.99,11.4,,"CCNC(=O)[C@H]1O[C@@H](n2cnc3c(NC)nc(-c4cncc(F)c4)nc32)[C@H](O)[C@@H]1O [compound 43, (2S,3S,4R,5R)-N-ethyl-5-(2-(5-fluoropyridin-3-yl)-6-(methylamino)-9H-purin-9-yl)-3,4-dihydroxyl-tetrahydrofuran-2-formamide]"
75.08,20.6,,"CCNC(=O)[C@H]1O[C@@H](n2cnc3c(NC)nc(-c4cncc(C)c4)nc32)[C@H](O)[C@@H]1O [compound 72, (2S,3S,4R,5R)-N-ethyl-3,4-dihydroxyl-5-(6-(methylamino)-2-(5-methylpyridin-3-yl)-9H-purin-9-yl)tetrahydrofuran-2-carboxamide]"
,29.6,,"CCNC(=O)[C@H]1O[C@@H](n2cnc3c(NC)nc(-c4cncc(OC)c4)nc32)[C@H](O)[C@@H]1O [compound 73, (2S,3S,4R,5R)-N-ethyl-3,4-dihydroxyl-5-(2-(5-methoxypyridin-3-yl)-6-(methylamino)-9H-purin-9-yl)tetrahydrofuran-2-carboxamide]"
,25.2,,"CCNC(=O)[C@H]1O[C@@H](n2cnc3c(NC)nc(-c4cncc(Cl)c4)nc32)[C@H](O)[C@@H]1O [compound 90, (2S,3S,4R,5R)-5-(2-(5-chloropyridin-3-yl)-6-(methylamino)-9H-purin-9-yl)-N-ethyl-3,4-dihydroxyltetrahydrofuran-2-carboxamide]"
2205.59,9.06,,"CNC(=O)[C@H]1O[C@@H](n2cnc3c(NCc4cc(C)ccn4)nc(-c4cncc(C)c4)nc32)[C@H](O)[C@@H]1O [compound 190, (2S,3S,4R,5R)-3,4-dihydroxyl-N-methyl-5-(6-((4-methylpyridin-2-yl)methylamino)-2-(5-methylpyridin-3-yl)-9H-purin-9-yl)-tetrahydrofuran-2-formamide]"
1183.39,5.29,,"CNC(=O)[C@H]1O[C@@H](n2cnc3c(NCc4cc(C)ccc4F)nc(-c4cccnc4)nc32)[C@H](O)[C@@H]1O [compound 191, (2S,3S,4R,5R)-5-(6-(2-fluoro-5-methylbenzylamino)-2-(pyridin-3-yl)-9H-purin-9-yl)-3,4-dihydroxyl-N-methyl-tetrahydrofuran-2-formamide]"
3329.08,9.24,,"CNC(=O)[C@H]1O[C@@H](n2cnc3c(NCc4cc(C)ccc4F)nc(-c4cncc(F)c4)nc32)[C@H](O)[C@@H]1O [compound 192, (2S,3S,4R,5R)-5-(6-(2-fluoro-5-methylbenzylamino)-2-(5-fluoropyridin-3-yl)-9H-purin-9-yl)-3,4-dihydroxyl-N-methyl-tetrahydrofuran-2-formamide]"
2969.40,10.9,,"CNC(=O)[C@H]1O[C@@H](n2cnc3c(NCc4cc(C)ccc4F)nc(-c4cncc(C)c4)nc32)[C@H](O)[C@@H]1O [compound 193, (2S,3S,4R,5R)-5-(6-(2-fluoro-5-methylbenzylamino)-2-(5-methylpyridin-3-yl)-9H-purin-9-yl)-3,4-dihydroxyl-N-methyl-tetrahydrofuran-2-formamide]"
216.77,,12.4,"CNC(=O)[C@H]1O[C@@H](n2cnc3c(NCc4cccc(C(F)(F)F)n4)nc(-c4cncc(Cl)c4)nc32)[C@H](O)[C@@H]1O [compound 290, (2S,3S,4R,5R)-5-(2-(5-chloropyridin-3-yl)-6-(((6-(trifluoromethyl)pyridin-2-yl)methyl)amino)-9H-purin-9-yl)-3,4-dihydroxyl-N-methyltetrahydrofuran-2-carboxamide]"
639.00,,2.62,"CNC(=O)[C@H]1O[C@@H](n2cnc3c(NCc4cc(C(F)(F)F)ccn4)nc(-c4cncc(Cl)c4)nc32)[C@H](O)[C@@H]1O [compound 294, (2S,3S,4R,5R)-5-(2-(5-chloropyridin-3-yl)-6-(((4-(trifluoromethyl)pyridin-2-yl)methyl)amino)-9H-purin-9-yl)-3,4-dihydroxyl-N-methyltetrahydrofuran-2-carboxamide]"
729.20,,2.13,CNC(=O)[C@H]1O[C@H](n2cnc3c(NCc4cccc(C)c4)nc(-c4cncc(OC)c4)nc32)[C@H](O)[C@@H]1O [compound 300]
